Activity calls are given as the source filed them. The rule behind the calls is not given here.
How the values were obtained:
HK-2 [1] = assay: Antiproliferative activity against human HK-2 cells assessed as decrease in cell viability at 50 uM measured in presence of 10 uM cisplatin after 24 hrs by CCK-8 assay; assay type: functional
Mus musculus [2] = assay: Nephroprotective activity against cisplatin-induced acute kidney injury in male C57BL/6 mouse assessed as plasma BUN concentration at 10 mg/kg/day, ip; assay type: functional
Mus musculus [3] = assay: Nephroprotective activity against cisplatin-induced acute kidney injury in male C57BL/6 mouse assessed as plasma SCr concentration at 10 mg/kg/day, ip; assay type: functional
Mus musculus [4] = assay: Nephroprotective activity against cisplatin-induced acute kidney injury in male C57BL/6 mouse assessed as serum EPO level at 10 mg/kg/day, ip; assay type: functional
Egl nine homolog 1 = Egl nine homolog 1 (Homo sapiens, UniProt Q9GZT9); assay: Inhibition of PHD2 (unknown origin) measured by fluorescence polarization assay
Egl nine homolog 1, sequence (Q9GZT9 whole entry): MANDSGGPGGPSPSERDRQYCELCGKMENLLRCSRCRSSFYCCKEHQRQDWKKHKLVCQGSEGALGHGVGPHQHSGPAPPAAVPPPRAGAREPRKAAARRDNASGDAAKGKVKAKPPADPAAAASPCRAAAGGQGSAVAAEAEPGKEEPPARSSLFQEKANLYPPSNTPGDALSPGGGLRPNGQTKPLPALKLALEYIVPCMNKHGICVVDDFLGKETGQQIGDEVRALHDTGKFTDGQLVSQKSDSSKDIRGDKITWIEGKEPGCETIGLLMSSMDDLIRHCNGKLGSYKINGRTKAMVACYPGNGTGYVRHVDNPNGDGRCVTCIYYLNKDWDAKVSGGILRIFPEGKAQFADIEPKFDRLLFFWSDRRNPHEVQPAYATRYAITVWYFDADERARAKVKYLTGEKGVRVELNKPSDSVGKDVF

Histone deacetylase 1 = Histone deacetylase 1 (Homo sapiens, UniProt Q13547); assay: Inhibition of HDAC1 (unknown origin) using trypsin and Ac-peptide as substrates
Histone deacetylase 1, sequence (Q13547 whole entry): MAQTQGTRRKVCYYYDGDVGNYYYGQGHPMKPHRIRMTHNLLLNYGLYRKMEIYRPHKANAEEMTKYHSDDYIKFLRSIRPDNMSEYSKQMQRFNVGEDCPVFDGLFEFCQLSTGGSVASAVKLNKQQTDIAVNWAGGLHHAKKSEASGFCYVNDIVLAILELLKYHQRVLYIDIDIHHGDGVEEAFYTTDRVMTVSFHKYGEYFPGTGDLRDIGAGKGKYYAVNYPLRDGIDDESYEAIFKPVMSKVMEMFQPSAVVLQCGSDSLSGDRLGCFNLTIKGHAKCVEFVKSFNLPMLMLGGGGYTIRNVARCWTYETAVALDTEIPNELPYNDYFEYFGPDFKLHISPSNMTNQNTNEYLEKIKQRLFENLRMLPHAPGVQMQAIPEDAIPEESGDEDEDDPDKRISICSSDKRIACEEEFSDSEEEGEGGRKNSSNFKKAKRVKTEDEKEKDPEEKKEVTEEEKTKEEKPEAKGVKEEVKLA

Histone deacetylase 2 = Histone deacetylase 2 (Homo sapiens, UniProt Q92769)
Histone deacetylase 2, sequence (Q92769 whole entry): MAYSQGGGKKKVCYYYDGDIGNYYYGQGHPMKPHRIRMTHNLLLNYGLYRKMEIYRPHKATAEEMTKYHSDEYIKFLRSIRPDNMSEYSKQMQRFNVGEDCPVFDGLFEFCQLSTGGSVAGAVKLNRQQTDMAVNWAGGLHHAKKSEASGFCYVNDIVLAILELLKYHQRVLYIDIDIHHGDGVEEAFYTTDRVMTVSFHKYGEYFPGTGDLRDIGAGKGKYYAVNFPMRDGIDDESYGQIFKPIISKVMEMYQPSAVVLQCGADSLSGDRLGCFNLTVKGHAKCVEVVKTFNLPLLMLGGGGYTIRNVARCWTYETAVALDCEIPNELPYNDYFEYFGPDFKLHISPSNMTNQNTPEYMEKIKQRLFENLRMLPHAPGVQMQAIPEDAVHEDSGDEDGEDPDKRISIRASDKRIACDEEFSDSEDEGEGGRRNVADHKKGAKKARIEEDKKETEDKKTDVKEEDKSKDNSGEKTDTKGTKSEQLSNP

Histone deacetylase 4 = Histone deacetylase 4 (Homo sapiens, UniProt P56524); assay: Inhibition of HDAC4 (unknown origin) using trypsin and Ac-peptide as substrates
Histone deacetylase 4, sequence (P56524 whole entry): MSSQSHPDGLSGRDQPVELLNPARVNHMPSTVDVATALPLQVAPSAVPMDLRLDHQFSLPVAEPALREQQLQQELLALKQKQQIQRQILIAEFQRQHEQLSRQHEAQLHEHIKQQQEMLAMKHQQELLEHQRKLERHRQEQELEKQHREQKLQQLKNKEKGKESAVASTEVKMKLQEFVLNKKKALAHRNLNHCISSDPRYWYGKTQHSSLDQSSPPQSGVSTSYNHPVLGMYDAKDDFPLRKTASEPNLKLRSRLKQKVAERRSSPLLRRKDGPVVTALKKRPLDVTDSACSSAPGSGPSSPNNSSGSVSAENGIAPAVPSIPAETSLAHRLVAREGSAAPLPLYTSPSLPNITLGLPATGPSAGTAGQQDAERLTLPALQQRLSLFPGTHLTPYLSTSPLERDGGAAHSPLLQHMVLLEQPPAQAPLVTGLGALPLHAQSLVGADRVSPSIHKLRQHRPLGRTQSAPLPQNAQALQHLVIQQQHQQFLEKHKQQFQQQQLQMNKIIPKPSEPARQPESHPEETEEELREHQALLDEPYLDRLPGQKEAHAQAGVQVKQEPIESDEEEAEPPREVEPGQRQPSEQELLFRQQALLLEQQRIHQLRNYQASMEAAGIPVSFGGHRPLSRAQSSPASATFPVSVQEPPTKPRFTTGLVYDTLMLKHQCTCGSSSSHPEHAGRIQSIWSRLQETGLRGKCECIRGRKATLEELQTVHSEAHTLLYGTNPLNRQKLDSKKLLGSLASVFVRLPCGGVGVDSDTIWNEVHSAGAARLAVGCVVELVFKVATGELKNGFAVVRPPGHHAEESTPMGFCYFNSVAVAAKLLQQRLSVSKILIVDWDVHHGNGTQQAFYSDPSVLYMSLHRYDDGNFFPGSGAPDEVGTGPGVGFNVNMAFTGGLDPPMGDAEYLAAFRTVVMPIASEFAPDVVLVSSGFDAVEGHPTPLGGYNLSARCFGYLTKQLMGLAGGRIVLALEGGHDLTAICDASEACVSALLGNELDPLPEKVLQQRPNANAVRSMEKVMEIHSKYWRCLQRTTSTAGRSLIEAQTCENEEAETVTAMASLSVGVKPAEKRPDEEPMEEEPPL

[5] = target: T1, Protein deacetylase HDAC6 (Homo sapiens, UniProt Q9UBN7); assay: Inhibition of HDAC6 (unknown origin) using trypsin and Ac-peptide as substrates
T1 sequence (Q9UBN7 whole entry): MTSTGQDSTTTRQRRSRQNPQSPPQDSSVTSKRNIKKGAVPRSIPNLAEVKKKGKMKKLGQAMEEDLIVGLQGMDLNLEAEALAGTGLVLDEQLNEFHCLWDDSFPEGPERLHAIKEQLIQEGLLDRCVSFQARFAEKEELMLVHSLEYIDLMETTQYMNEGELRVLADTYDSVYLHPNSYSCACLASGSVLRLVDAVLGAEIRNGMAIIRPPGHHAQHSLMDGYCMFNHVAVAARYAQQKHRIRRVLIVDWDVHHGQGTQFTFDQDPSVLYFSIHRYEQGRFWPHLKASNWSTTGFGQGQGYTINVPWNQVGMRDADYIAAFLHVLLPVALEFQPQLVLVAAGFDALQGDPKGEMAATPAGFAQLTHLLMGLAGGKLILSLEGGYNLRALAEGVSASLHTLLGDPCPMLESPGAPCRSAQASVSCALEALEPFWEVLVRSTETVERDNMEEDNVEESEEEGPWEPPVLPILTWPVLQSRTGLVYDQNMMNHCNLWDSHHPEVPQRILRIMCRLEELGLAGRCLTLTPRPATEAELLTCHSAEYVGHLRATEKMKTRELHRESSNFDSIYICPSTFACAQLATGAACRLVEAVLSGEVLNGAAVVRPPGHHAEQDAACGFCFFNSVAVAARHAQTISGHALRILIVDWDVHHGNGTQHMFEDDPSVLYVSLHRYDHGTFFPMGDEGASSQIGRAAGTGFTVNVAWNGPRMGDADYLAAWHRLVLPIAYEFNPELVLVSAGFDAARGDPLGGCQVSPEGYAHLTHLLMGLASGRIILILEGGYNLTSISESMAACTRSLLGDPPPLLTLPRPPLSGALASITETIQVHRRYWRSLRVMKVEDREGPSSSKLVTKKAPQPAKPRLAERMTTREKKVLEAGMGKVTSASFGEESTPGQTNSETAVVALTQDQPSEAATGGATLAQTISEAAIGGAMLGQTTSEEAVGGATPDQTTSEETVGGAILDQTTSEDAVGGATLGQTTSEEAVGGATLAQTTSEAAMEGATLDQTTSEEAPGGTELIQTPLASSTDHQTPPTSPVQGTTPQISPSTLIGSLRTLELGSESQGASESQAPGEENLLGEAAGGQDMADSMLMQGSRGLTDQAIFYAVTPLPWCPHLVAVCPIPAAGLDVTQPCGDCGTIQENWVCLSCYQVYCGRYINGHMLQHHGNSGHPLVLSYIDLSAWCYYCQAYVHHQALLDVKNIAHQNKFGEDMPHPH

MCF7 [6] = assay: Antiproliferative activity against human MCF7 cells assessed as decrease in cell viability at 50 uM relative to control; assay type: functional, cell-based
A549 [7] = assay: Antiproliferative activity against human A549 cells assessed as decrease in cell viability at 50 uM relative to control; assay type: functional, cell-based
MCF7 [8] = assay: Antiproliferative activity against human MCF7 cells assessed as decrease in cell viability at 50 uM in presence of 100 uM cisplatin relative to control; assay type: functional
A549 [9] = assay: Antiproliferative activity against human A549 cells assessed as decrease in cell viability at 50 uM in presence of 40 uM cisplatin relative to control; assay type: functional
MCF7 [10] = assay: Induction of apoptosis in human MCF7 cells assessed as apoptotic cell population at 50 uM measured by Annexin V-FITC/propidium iodide staining based flow cytometry assay; assay type: functional
A549 [11] = assay: Induction of apoptosis in human A549 cells assessed as apoptotic cell population at 50 uM measured by Annexin V-FITC/propidium iodide staining based flow cytometry assay; assay type: functional
MCF7 [12] = assay: Induction of apoptosis in human MCF7 cells assessed as apoptotic cell population at 50 uM in presence of 100 uM cisplatin measured by Annexin V-FITC/propidium iodide staining based flow cytometry assay; assay type: functional
A549 [13] = assay: Induction of apoptosis in human A549 cells assessed as apoptotic cell population at 50 uM in presence of 100 uM cisplatin measured by Annexin V-FITC/propidium iodide staining based flow cytometry assay; assay type: functional
Mus musculus [14] = assay: Nephroprotective activity against cisplatin-induced acute kidney injury in male C57BL/6 mouse assessed as decrease in expression of NGAL at 10 mg/kg/day, ip; assay type: functional, organism-based
Mus musculus [15] = assay: Nephroprotective activity against cisplatin-induced acute kidney injury in male C57BL/6 mouse assessed as decrease tubular injury at 10 mg/kg/day, ip; assay type: functional, organism-based
HK-2 [16] = assay: Antiproliferative activity against human HK-2 cells assessed as decrease in cell viability at 0.78 uM measured after 24 hrs by CCK-8 assay; assay type: functional

IC50 (Egl nine homolog 1) [nM]	IC50 (Histone deacetylase 1) [nM]	IC50 (Histone deacetylase 2) [nM]	IC50 (Histone deacetylase 4) [nM]	IC50 [5] [nM]	SMILES	Activity (HK-2 [1]) [%]	Activity (Mus musculus [2]) [mmol/L]	Activity (Mus musculus [3]) [mmol/L]	Activity (Mus musculus [4]) [mIU/ml]	Activity (MCF7 [6])	Activity (A549 [7])	Activity (MCF7 [8]) [%]	Activity (A549 [9]) [%]	Activity (MCF7 [10]) [%]	Activity (A549 [11]) [%]	Activity (MCF7 [12]) [%]	Activity (A549 [13]) [%]	Activity (Mus musculus [14])	Activity (Mus musculus [15])	Activity (HK-2 [16]) [%]
–	–	–	–	–	Cc1nc(C(=O)NCC(=O)O)c(O)c2ccc(Oc3ccccc3)cc12 [ROXADUSTAT]	71.12	13.91	0.0947	23.46	–	–	–	–	–	–	–	–	–	–	–
1150	19.8	26.6	1170	16	O=C(NO)c1cnc(N2CCC(NC(=O)c3cnc(-n4cccn4)nc3O)CC2)nc1	61.96	10.86	0.0311	15.34	Active	Active	36.83	39.09	19.3	4.9	26.6	13.2	Active	Active	–
–	–	–	–	–	CC(/C=C/C(=O)NO)=C\[C@@H](C)C(=O)c1ccc(N(C)C)cc1 [TRICHOSTATIN]	–	8.86	0.129	–	–	–	–	–	–	–	–	–	–	–	70

Reference: ChEMBL document CHEMBL5154698, “Novel PHD2/HDACs hybrid inhibitors protect against cisplatin-induced acute kidney injury” (Eur J Med Chem, 2022)
